We go through one compound from ChEMBL document CHEMBL4602617, “Discovery and optimization of heteroaryl piperazines as potent and selective PI3Kδ inhibitors” (Bioorg Med Chem Lett, 2020).

The nature of data set [1]: Unbound clearance in rat at 0.5 mg/kg, iv or 1 mg/kg, po. It is filed as ADME, organism-based. As to conditions: in vivo.
The target of data set [2] is Tyrosine-protein kinase receptor UFO (Homo sapiens, UniProt P30530). Briefly: Inhibition of recombinant full length human GST-tagged AXL expressed in insect expression system using tyrosine-6 peptide as substrate incubated for 60 mins in presence of ATP by Z'-LYTE assay.
Chain of Tyrosine-protein kinase receptor UFO (P30530 whole entry): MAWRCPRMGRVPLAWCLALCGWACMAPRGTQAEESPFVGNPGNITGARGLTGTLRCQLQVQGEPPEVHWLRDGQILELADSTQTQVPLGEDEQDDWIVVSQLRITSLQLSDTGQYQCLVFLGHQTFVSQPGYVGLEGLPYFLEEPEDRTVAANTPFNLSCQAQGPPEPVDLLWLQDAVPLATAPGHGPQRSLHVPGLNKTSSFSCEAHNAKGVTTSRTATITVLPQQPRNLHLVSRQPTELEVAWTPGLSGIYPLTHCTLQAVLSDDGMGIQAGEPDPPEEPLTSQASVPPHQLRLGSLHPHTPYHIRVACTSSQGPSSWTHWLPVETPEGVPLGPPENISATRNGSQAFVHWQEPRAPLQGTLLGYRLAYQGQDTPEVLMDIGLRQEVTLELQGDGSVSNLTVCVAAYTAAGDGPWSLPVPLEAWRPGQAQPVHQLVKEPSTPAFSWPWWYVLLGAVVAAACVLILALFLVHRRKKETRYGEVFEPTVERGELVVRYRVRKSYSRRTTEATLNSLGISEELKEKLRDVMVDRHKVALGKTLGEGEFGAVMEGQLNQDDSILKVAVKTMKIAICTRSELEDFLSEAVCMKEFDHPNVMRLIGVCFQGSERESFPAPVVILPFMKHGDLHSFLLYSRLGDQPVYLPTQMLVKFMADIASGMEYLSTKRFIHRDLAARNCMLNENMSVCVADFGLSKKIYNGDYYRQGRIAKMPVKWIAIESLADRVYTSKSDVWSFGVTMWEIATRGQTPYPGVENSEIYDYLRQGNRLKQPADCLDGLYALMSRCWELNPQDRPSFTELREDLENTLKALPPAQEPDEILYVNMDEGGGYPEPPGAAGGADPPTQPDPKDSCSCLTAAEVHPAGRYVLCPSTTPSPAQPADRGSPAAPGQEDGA
For data set [3], the target named is G protein-coupled receptor kinase 3 (Homo sapiens, UniProt P35626). The experiment in a line: Inhibition of recombinant full length human GST-tagged GRK3 expressed in baculovirus expression system using serine/threonine-16 peptide as substrate incubated for 60 mins in presence of ATP by Z'-LYTE assay.
Chain of G protein-coupled receptor kinase 3 (P35626 whole entry, canonical isoform): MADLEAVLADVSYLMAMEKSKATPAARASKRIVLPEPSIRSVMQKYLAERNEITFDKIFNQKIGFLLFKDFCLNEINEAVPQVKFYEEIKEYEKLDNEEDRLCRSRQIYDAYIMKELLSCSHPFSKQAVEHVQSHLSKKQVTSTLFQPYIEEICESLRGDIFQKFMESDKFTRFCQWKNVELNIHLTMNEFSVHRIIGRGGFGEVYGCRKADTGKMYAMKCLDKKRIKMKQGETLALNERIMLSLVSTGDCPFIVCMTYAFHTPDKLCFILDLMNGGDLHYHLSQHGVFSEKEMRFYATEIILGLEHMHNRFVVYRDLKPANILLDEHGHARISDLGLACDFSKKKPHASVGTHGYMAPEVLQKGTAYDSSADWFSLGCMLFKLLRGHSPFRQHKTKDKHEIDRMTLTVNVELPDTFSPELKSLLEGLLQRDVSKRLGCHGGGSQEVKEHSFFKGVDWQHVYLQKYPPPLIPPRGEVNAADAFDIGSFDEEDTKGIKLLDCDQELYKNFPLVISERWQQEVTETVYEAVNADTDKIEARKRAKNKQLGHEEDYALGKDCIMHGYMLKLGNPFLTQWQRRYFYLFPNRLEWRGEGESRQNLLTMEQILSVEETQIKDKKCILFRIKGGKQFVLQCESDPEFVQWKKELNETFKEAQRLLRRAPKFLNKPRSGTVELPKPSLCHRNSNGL
Data set [4] has as its target T1, Phosphatidylinositol 4,5-bisphosphate 3-kinase catalytic subunit delta isoform (Homo sapiens, UniProt O00329).
T1 sequence (O00329 whole entry): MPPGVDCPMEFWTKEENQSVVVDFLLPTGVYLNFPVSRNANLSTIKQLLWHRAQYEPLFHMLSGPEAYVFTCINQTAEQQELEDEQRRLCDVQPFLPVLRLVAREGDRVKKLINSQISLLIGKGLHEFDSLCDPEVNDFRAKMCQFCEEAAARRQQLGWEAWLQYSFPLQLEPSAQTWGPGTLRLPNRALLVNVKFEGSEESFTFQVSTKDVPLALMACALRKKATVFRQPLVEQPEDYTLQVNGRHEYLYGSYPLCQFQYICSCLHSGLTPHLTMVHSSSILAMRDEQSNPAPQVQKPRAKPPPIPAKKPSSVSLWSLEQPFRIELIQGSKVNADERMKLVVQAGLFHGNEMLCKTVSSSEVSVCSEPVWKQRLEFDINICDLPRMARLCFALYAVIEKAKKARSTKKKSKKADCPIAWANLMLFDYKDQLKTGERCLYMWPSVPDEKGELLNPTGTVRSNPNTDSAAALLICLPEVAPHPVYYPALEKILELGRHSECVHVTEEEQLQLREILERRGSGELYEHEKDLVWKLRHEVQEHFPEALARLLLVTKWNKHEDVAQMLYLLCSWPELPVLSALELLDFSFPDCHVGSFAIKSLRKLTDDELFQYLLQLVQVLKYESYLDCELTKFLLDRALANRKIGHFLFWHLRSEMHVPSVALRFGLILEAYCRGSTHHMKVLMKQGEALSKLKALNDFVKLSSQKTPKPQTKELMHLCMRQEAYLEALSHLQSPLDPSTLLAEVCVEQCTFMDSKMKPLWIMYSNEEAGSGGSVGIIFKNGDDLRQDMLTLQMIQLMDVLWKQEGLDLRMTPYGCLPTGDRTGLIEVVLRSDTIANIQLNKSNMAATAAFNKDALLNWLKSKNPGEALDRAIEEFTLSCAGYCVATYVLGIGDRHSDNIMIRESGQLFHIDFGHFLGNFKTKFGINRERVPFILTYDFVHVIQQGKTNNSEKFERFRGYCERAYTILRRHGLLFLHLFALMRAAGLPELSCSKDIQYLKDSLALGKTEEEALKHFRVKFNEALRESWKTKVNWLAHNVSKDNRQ
Briefly: Inhibition of PI3K delta (unknown origin) by Adapta assay.

In data set [5] the target is Somatostatin receptor type 2 (Homo sapiens) (UniProt P30874). Briefly: Displacement of [125I]Tyr11-Somatostatin 14 from recombinant full length human SST2 expressed in CHO-K1 cells at 10 uM after 4 hrs by radiometric scintillation analysis relative to control. The format is cell-based.
Chain of Somatostatin receptor type 2 (Homo sapiens) (P30874 whole entry): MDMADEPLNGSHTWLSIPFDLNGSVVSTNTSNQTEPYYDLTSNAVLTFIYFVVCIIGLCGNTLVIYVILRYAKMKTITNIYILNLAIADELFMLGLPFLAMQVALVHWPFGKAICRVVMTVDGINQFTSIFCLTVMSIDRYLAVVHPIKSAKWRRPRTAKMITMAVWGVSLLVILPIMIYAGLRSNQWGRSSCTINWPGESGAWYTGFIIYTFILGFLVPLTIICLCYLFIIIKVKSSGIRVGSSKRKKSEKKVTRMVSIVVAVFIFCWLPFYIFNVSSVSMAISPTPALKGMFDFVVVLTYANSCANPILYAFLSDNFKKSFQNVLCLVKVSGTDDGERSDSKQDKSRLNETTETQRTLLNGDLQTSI
Data set [6] concerns the target Glutamate NMDA receptor (Rattus norvegicus) (UniProt P35439+Q00959+Q00960+Q00961+Q62645+Q8VHN2+Q9R1M7). Briefly: Displacement of [3H]Ifenprodil from in glutamate NMDA receptor polyamine binding site in Wistar rat cerebral cortex at 10 uM incubated for 120 mins by radiometric scintillation analysis relative to control. In general terms: Loss of bound radioactivity is the signal in a displacement assay; it reports binding, not function.

The target in data set [7] is Beta-3 adrenergic receptor (Homo sapiens) (UniProt P13945). The experiment in a line: Displacement of [125I]cyanopindolol from full-length recombinant human beta3 adrenergic receptor expressed in HEK293 cell membranes at 10 uM measured after 90 mins by scintillation counting method relative to control.
Chain of Beta-3 adrenergic receptor (Homo sapiens) (P13945 whole entry, looked up, canonical isoform): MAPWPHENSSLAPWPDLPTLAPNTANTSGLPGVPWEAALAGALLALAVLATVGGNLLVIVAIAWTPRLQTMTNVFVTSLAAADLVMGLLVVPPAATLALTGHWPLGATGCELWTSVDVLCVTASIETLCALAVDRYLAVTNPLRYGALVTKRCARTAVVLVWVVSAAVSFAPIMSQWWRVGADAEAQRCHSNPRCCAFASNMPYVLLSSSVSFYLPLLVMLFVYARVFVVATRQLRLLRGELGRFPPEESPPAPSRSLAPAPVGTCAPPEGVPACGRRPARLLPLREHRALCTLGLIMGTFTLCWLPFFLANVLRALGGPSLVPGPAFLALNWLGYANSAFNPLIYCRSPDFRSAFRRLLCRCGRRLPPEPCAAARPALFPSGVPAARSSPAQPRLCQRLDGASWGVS
The target in data set [8] is Casein kinase I isoform alpha (Homo sapiens, UniProt P48729). Briefly: Inhibition of recombinant full length human GST-tagged CSNK1A1 expressed in baculovirus expression system using fluorophore-labeled serine/threonine-11 peptide as substrate incubated for 60 mins in presence of ATP by Z'-LYTE assay.
Chain of Casein kinase I isoform alpha (P48729 whole entry, canonical isoform): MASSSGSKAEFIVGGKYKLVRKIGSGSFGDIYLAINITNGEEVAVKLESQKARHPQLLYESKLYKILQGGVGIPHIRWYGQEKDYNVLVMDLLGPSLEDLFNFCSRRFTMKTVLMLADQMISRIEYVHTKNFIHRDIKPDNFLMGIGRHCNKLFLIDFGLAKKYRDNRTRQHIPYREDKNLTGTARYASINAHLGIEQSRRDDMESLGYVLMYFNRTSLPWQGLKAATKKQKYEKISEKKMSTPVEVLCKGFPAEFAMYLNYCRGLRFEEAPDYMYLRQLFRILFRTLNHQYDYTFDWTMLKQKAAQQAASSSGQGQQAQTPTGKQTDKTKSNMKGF
The target of data set [9] is Casein kinase II subunit alpha' (Homo sapiens, UniProt P19784). The experiment in a line: Inhibition of recombinant human full-length GST-tagged CSNK2A2 expressed in baculovirus expression system using FRET-labeled Ser/Thr 11 peptide as substrate measured after 1 hr in presence of ATP by Z'-lyte assay.
Chain of Casein kinase II subunit alpha' (P19784 whole entry): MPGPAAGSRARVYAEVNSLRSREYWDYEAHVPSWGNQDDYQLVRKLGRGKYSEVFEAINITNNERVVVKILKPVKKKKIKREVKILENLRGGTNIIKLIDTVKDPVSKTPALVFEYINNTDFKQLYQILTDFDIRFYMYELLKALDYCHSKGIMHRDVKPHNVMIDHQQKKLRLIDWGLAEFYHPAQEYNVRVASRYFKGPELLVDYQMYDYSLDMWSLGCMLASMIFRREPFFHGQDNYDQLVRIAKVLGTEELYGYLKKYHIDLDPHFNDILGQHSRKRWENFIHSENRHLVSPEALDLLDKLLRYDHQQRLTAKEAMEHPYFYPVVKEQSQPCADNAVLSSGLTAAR
The target of data set [10] is Death-associated protein kinase 3 (Homo sapiens, UniProt O43293). Briefly: Inhibition of recombinant human full-length GST-tagged DAPK3 expressed in baculovirus expression system using FRET-labeled Ser/Thr 13 peptide as substrate measured after 1 hr in presence of ATP by Z'-lyte assay.
The target in a further data set is Ephrin type-B receptor 4 (Homo sapiens, UniProt P54760). Briefly: Inhibition of recombinant human His-tagged EPHB4 (561 to 987 residues) catalytic domain expressed in baculovirus expression system using tyrosine-01 peptide as substrate incubated for 60 mins in presence of ATP by Z'-LYTE assay.
Data set [11] deals with Vascular endothelial growth factor receptor 3 (Homo sapiens, UniProt P35916). Briefly: Inhibition of recombinant human GST-tagged FLT4 cytoplasmic domain expressed in baculovirus expression system after 1 using tyrosine 4 as substrate after 1 hr in presence of ATP by ZYLTE assay.
The target of data set [12] is Tyrosine-protein kinase JAK2 (Homo sapiens, UniProt O60674, V617F). The experiment in a line: Inhibition of human recombinant GST tagged JAK2 V617F mutant catalytic domain expressed in baculovirus expression system using Tyr6 peptide as substrate measured after 1 hr in presence of ATP by Z'-LYTE assay.
For data set [13], the target named is Mitogen-activated protein kinase 11 (Homo sapiens, UniProt Q15759). Briefly: Inhibition of recombinant full length human His-tagged p38beta expressed in baculovirus expression system using serine/threonine-15 peptide as substrate incubated for 60 mins in presence of ATP by Z'-LYTE assay.
Chain of Mitogen-activated protein kinase 11 (Q15759 whole entry, the tested form may be a part): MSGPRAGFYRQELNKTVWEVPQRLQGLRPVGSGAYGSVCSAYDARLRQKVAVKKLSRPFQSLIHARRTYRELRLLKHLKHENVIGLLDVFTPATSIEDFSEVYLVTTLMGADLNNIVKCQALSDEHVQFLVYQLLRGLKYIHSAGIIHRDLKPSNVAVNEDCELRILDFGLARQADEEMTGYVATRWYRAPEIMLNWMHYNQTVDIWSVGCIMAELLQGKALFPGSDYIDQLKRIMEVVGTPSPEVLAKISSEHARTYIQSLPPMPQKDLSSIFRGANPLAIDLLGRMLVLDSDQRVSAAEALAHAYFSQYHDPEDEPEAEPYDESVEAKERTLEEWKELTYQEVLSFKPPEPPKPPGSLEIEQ
Data set [14] deals with Muscle, skeletal receptor tyrosine-protein kinase (Homo sapiens, UniProt O15146). Briefly: Inhibition of recombinant human GST-tagged MUSK cytoplasmic domain (519 to 869 residues) expressed in baculovirus expression system using tyrosine-4 peptide as substrate incubated for 60 mins in presence of ATP by Z'-LYTE assay.
Chain of Muscle, skeletal receptor tyrosine-protein kinase (O15146 whole entry, the tested form may be a part): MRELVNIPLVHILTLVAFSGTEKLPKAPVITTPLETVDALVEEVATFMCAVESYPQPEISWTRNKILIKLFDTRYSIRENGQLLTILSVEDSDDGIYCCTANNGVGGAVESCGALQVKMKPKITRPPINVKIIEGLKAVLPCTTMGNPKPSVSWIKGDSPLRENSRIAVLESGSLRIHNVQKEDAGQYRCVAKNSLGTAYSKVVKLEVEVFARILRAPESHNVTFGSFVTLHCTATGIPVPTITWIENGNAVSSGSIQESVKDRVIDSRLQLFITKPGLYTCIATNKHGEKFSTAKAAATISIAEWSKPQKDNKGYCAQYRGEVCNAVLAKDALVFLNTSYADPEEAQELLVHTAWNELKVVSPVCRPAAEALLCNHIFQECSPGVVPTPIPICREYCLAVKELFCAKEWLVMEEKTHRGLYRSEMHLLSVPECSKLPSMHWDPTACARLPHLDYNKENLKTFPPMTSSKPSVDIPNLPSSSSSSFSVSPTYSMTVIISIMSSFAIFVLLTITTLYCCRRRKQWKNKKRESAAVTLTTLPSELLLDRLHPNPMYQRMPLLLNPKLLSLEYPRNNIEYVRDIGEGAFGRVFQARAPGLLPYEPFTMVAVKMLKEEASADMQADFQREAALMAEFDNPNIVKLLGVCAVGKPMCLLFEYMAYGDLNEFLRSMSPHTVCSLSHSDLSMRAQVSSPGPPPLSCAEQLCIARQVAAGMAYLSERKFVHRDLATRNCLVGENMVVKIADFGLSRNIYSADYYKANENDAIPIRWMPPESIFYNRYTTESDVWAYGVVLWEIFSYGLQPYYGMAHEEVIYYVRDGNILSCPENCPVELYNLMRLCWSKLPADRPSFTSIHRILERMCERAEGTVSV
In data set [15] the target is Protein kinase C alpha type (Homo sapiens, UniProt P17252). The experiment in a line: Inhibition of recombinant human GST-tagged PKCalpha expressed in insect expression system using serine/threonine-7 peptide as substrate incubated for 60 mins in presence of ATP by Z'-LYTE assay.
Data set [16] has as its target Proto-oncogene tyrosine-protein kinase ROS (Homo sapiens, UniProt P08922). The experiment in a line: Inhibition of recombinant human GST-tagged ROS1 cytoplasmic domain expressed in baculovirus expression system using tyrosine-2 peptide as substrate incubated for 60 mins in presence of ATP by Z'-LYTE assay.

In general, IC50 refers to the midpoint of a concentration-inhibition curve. By inhibition is commonly meant the relative decrease from the control value, in per cent.

Some results are limits rather than exact numbers.

`C[C@@H]1C[C@H]1C(=O)N1CCN(c2cnc(C#N)c(-c3cnn(C)c3)n2)C[C@H]1C`: the CL free in [1] was found to be 187 mL/min/kg. Also, the half-inhibitory concentration (IC50) in data set [2] was over 100 µM; in [3], over 100 µM; in data set [4], under 0.01 µM; in [8] it was over 100 µM; in data set [9], over 100 µM; in data set [10], over 100 µM. The IC50 (on Ephrin type-B receptor 4; in data set [11]; in data set [12]; in [13]; in [14]; in data set [15]) was over 100 µM each time. Also, the concentration for half-maximal inhibition (IC50) in [16] is over 100 µM. Besides, the inhibition in data set [5] was -5%; in data set [6], 0%; in data set [7] it was -1%.
